Our source for the Ki values is patent US6365633B1, “Method of treating eating disorders” (Knoll Pharmaceutical Company, priority 1999, dated 2002).

The target in assay [1] is [3H]Noradenaline reuptake in rat brain tissue. Description: in vitro [3H]noradrenaline reuptake inhibition in rat brain tissue. Conditions: means of ≧3 separate determinations. Format: biochemical.
The target in assay [2] is [3H]Dopamine reuptake in rat brain tissue. Description: in vitro [3H]dopamine reuptake inhibition in rat brain tissue. Format: biochemical. Conditions: means of ≧3 separate determinations.

For the compound `COc1ccc(C(CN(C)C)C2(O)CCCCC2)cc1` (stereo not shown) [Venlafaxine], the figures for the Ki in assay [1] and in assay [2] were 196 nM and 2590 nM, respectively.

Take `CC(NC(C)(C)C)C(=O)c1cccc(Cl)c1` (stereo not shown) [Bupropion]: the inhibition constant Ki stood at 2590 nM in assay [1] and 409 nM in assay [2].

In general, Ki refers to a measure of affinity in units of concentration, obtained from inhibition or displacement. Lower therefore signals higher affinity.
